Results taken from patent US20130189352A1 (ZHEJIANG UNIVERSITY, priority 2011, published 2013).
Values after ≈ are worked out from the molar mass of the structure shown. Like-named read-outs stand apart in the source and are kept apart here.

Tests used:
[1] = test system: human breast cancer cells (MCF-7); assay: MTT cytotoxicity test, MCF-7; type: cell-based; settings: read-out: IC50 MCF-7
Description: (§1) The cells suspension solution was seeded in 96-well plates with 100 μL solution per well containing 5000-10000 cells. […] The drug-loaded liposomes and doxorubicin were separately solved in saline solutions. […] These different formulations were added 25 μl per well in increasing concentrations to the wells of the 96-well plate. The cells were allowed to grow for 24 hours before adding 31.5 μl MTT (5 mg/mL) per well. Finally, about 4 hours later, all of the culture medium was removed and the precipitates were dissolved in 200 μl dimethyl sulfoxide (DMSO). […] The above tests were repeated three times for each group and each concentration has four wells. […] The IC50 values were calculated by IC50.exe software.

[2] = test system: doxorubicin-resistance human promyelocytic leukemia cell (HL60/ADR); assay: MTT cytotoxicity test, HL60/ADR; type: cell-based; settings: read-out: IC50 HL60/ADR
Description: as §1

[3] = cited from earlier work
[4] = test system: human promyelocytic leukemia cells (HL60); assay: MTT cytotoxicity test, HL60; type: cell-based; settings: read-out: IC50 HL60
Description: as §1

[5] = test system: doxorubicin-resistant human breast cancer MCF-7 (MCF-7/ADR); assay: MTT cytotoxicity test, MCF-7/ADR; type: cell-based; settings: NCI/ADR-RES, read-out: IC50 MCF-7/ADR
Description: as §1

[6] = MTT, 24 hours drug exposure, concentrations based on the amount of doxorubicin

SMILES	IC50 ([1]; MCF7, MTT, 24 hours drug exposure, concentrations based on the amount of doxorubicin) [µg/mL]	IC50 [2, 6] [µg/mL]	PKa [3]	IC50 ([4]; HL-60, MTT, 24 hours drug exposure, concentrations based on the amount of doxorubicin) [µg/mL]	IC50 [5, 6] [µg/mL]	IC50 ([1]; MCF7, 24 h) [µg/mL]	IC50 ([2]; 24 h) [µg/mL]	IC50 ([4]; HL-60, 24 h) [µg/mL]	IC50 ([5]; 24 h) [µg/mL]
COc1cccc2c1C(=O)c1c(O)c3c(c(O)c1C2=O)C[C@@](O)(C(=O)CO)C[C@@H]3O[C@H]1C[C@H](N)[C@H](O)[C@H](C)O1 [Control 1, doxorubicin]	0.4 (≈ 0.736 µM)	13.6 (≈ 25 µM)	4.0	0.4 (≈ 0.736 µM)	15.7 (≈ 28.9 µM)	–	–	–	–
CCN(CC)CCCC(C)Nc1ccnc2cc(Cl)ccc12 (stereo not drawn) [Control 2, chloroquine]	–	–	–	–	–	18.1 (≈ 56.6 µM)	11.2 (≈ 35 µM)	17.3 (≈ 54.1 µM)	23.3 (≈ 72.8 µM)
